Experimental data published in patent US6075057A, “Inhibition of carbohydrates metabolism by quinone compounds” (priority 1997, dated 2000).

Tests used:
[1] = molecular target: T1, α-mannosidase (EC 3.2.1.24) (Canavalia ensiformis, UniProt C0HJB3); assay: Initial screening assay for enzyme inhibition, α-mannosidase; assay type: biochemical, jack beans; conditions: for remaining activity at 10 µM: α-mannosidase, 10 μM inhibitor, 2% MeOH, read-out: % Enzyme activity relative to control
T1 construct: 66 and 44 kDa subunits cleaved from one precursor
T1 sequence (C0HJB3 1-981): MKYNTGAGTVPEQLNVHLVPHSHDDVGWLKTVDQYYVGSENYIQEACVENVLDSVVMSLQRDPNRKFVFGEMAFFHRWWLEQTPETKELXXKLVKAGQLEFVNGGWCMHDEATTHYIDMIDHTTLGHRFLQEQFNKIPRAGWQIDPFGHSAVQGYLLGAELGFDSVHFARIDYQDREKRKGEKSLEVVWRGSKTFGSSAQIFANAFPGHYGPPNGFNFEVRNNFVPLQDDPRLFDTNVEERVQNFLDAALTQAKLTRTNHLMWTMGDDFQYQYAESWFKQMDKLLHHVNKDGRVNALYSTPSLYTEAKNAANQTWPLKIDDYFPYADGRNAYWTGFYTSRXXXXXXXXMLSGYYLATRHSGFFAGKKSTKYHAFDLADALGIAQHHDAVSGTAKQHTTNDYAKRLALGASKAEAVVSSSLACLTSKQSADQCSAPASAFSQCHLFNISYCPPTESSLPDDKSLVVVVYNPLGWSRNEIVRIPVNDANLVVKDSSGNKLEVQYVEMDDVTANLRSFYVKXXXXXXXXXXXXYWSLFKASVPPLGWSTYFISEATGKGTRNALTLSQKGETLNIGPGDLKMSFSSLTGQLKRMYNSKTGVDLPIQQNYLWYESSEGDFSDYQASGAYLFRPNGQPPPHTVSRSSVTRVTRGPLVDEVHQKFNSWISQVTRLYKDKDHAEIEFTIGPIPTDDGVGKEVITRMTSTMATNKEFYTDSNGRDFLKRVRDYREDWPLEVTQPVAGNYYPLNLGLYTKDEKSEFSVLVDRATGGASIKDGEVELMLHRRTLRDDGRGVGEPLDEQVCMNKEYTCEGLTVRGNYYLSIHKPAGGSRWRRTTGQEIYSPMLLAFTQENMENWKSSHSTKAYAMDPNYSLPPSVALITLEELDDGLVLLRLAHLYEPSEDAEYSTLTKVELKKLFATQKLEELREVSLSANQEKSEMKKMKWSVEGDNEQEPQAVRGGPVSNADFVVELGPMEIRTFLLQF
Procedure: (§1) Optically pure enantiomers of avarol were synthetically prepared. A survey of potential inhibitory activity by avarol against twelve glycosidases was performed according to general procedures^15 (see experimental section). The enzymes tested and their biological sources are listed in Table 1 along with any pertinent references found for a given enzyme. In order to determine a working range for enzyme and substrate concentrations in which the rate of product formation was linear and steady-state kinetics were applicable, initial rate studies with varying substrate concentrations were performed in the absence of inhibitor. The Michaelis constants (Km 's) and Vmax values for these enzymes were determined from these plots using standard graphical analysis procedures as described in ref. 17 and are summarized in Table 2.
(§2) Initial screening assays with the enantiomeric avarols indicated significant activity by these compounds against only two of the twelve enzymes studies. […] This can occur when the two species compete for the same site or nearby sites on the enzyme. The equilibria that describe competitive inhibition are shown below. [drawing 3]
(§3) Enzymatic Assays. […] Reactions were monitored at 400 nm (the absorbance of the p-nitrophenol product, ε=3204.5 M^-1 cm^-1) for a given amount of time and the initial rates were calculated and expressed as μmols p-nitrophenol formed per unit enzyme per second. Absportion readings for control reactions were corrected for the small baseline absorbance at time zero. Small discrepancies between time zero absorbance readings in a given inhibition assay and a time zero reading in a control assay were used to correct the overall absorbance change calculated in the inhibition assay. […]
(§4) Typical assay: A 1.5-mL quartz cuvette was charged with 940 μL of PIPES-NaOAc buffer solution (pH 6.56), 20 μL of inhibitor solution, and 20 μL of enzyme solution. […] The reaction was monitored at 400 nm for 1 min and the absorbance change was used to calculate the initial hydrolysis rate. […]

[2] = molecular target: T2, α-glucosidase (brewer's yeast) (Saccharomyces cerevisiae, UniProt P53341); assay: Lineweaver-Burk analysis of inhibition of α-glucosidase; assay type: biochemical; conditions: replot of Lineweaver-Burk slopes, linear extrapolation; pH 6.56, 37° C.
T2 construct: purchased Sigma; host or cells: brewer's yeast
T2 sequence (P53341 whole entry): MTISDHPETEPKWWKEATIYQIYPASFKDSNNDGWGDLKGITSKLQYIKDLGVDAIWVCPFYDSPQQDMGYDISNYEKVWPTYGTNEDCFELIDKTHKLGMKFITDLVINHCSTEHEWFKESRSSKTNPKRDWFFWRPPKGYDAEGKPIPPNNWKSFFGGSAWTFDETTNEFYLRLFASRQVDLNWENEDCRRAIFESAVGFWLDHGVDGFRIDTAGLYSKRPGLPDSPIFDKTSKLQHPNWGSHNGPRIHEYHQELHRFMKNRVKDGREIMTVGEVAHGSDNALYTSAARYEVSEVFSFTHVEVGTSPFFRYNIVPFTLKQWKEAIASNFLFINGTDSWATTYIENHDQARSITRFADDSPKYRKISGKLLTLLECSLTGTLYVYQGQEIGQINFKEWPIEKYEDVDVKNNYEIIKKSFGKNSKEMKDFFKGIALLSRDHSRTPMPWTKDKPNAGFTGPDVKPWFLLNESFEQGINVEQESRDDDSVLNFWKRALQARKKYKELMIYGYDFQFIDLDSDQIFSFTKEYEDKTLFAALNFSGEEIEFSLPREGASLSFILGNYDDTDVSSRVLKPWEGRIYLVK
Description: as §2
The equilibria describing this phenomenon are shown below. [drawing 4] The α factor represents the amount by which KS changes when I binds to the enzyme. The overall equilibrium constant for the formation of ESI remains the same regardless of which path was taken in its formation. Since the ES and ESI complexes are equally efficient in producing product, Vmax remains unchanged and Km is increased in the presence of inhibitor.
as §3

[3] = tested on: α-galactosidase (EC 3.2.1.22); assay: Initial screening assay for enzyme inhibition, α-galactosidase (E. coli); assay type: biochemical, Escherichia coli; conditions: 2% MeOH
Procedure: as §1
(§5) Enzymatic Assays. Piperazine-N,N'-bix-(2-ethanesulfonic acid)(PIPES) buffer, enzymes, and substrates were purchased from Sigma and used as received. Buffer solutions and enzymes (desiccated) were stored at 4° C. p-Nitrophenyl glycoside substrates were stored desiccated at -20° C. Enzyme inhibition assays and initial rate studies were carried out with the appropriate p-nitrophenyl glycoside substrates following the general procedure of Kajimoto et al., J. Am. Chem. Soc. 113:6187 (1991) with the exception that amyloglucosidase (EC 3.2,1.3, Asp. niger) was assayed following the method of Saul et al., Arch. Biochem. Biophys. 221:593 (1983). Assays were performed in a Perkin-Elmer Lambda Array 3840 Spectrophotometer using the built-in drive method (resolution=0.25, average=8) in a quartz cuvette (1 cm pathlength). Background absorption spectra were acquired using millipore filtered water as medium. Steady-state kinetics were maintained by adjusting the amount of enzyme used in each assay so that less than 10% of the substrate was converted to product for the duration of the reaction. Reactions were monitored at 400 nm (the absorbance of the p-nitrophenol product, ε=3204.5 M^-1 cm^-1) for a given amount of time and the initial rates were calculated and expressed as μmols p-nitrophenol formed per unit enzyme per second. Absportion readings for control reactions were corrected for the small baseline absorbance at time zero. Small discrepancies between time zero absorbance readings in a given inhibition assay and a time zero reading in a control assay were used to correct the overall absorbance change calculated in the inhibition assay. […]
as §4

[4] = molecular target: T3, α-D-mannosidase (jack bean) (Canavalia ensiformis, UniProt C0HJB3); assay: IC50 determination against α-D-mannosidase; assay type: biochemical; conditions: hot substrate solutions
T3 construct: purchased Sigma; host or cells: jack beans
Procedure: Enzymatic assays with a α-D-mannosidase (jack bean) were complicated by the higher Km of the enzyme (2.04 mM) requiring higher substrate concentrations and the relative insolubility of the .rho.-nitrophenyl mannoside substrate in aqueous media. The assay had to be performed using hot solutions of the substrate which were pipetted with some expected difficulty. Nonetheless, IC50 values of >40 μM and ~10 μM were obtained for the (+)- and (-)-enantiomers of avarol respectively.
as §3, with “Assays. Piperazine-N,N'-bix-(2-ethanesulfonic acid)(PIPES) buffer, enzymes, and substrates were purchased from Sigma and used as received. Buffer solutions and enzymes (desiccated) were stored at 4° C. p-Nitrophenyl glycoside substrates were stored desiccated at -20° C.” for “Assays.”

[5] = molecular target: T4, β-xylosidase (EC 3.2.1.37) (Aspergillus niger, UniProt O00089); assay: Initial screening assay for enzyme inhibition, β-xylosidase; assay type: biochemical; conditions: 2% MeOH, read-out: % Enzyme activity relative to control
T4 construct: purchased Sigma; host or cells: Aspergillus niger
T4 sequence (O00089 27-804): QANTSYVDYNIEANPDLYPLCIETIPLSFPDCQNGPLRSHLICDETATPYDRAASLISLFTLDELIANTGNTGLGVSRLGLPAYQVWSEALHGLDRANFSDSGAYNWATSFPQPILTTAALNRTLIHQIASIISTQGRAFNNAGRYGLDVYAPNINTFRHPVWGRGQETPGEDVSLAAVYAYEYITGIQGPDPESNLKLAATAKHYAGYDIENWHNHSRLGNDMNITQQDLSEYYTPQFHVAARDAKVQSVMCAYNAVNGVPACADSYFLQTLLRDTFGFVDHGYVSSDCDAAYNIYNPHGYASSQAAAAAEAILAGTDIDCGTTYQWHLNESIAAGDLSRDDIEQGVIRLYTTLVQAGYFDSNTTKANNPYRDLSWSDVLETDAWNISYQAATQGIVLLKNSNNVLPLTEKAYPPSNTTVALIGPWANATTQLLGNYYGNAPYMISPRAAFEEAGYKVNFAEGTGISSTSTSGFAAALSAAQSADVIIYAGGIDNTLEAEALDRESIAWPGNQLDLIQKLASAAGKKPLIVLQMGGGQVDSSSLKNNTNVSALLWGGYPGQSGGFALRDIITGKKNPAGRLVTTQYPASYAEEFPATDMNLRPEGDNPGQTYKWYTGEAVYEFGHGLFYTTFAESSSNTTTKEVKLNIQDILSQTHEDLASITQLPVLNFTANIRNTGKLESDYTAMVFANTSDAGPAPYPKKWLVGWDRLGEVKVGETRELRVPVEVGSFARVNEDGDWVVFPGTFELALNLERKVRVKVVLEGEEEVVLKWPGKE
Procedure: as §1, §5, §4

SMILES | activity versus naturally-occurring enantiomer, α-mannosidase (in words) ([1]; versus (+)-avarol) | remaining activity at 10 µM [1] | Ki [2] | % Enzyme activity relative to control ([3]; 20 μM inhibitor) | IC50 [4] | remaining activity at 20 µM ([5]; 20 μM inhibitor) | % Enzyme activity relative to control ([3]; 40 μM inhibitor) | remaining activity at 40 µM ([5]; 40 μM inhibitor)
CC1=CCC[C@@H]2[C@@](C)(Cc3cc(O)ccc3O)[C@H](C)CC[C@@]12C [(-)-avarol] | significantly more active than the naturally-occurring enantiomer | 47% | 9.5 µM | 94% | ~10 µM | 91% |  | 
CC1=CCC[C@H]2[C@](C)(Cc3cc(O)ccc3O)[C@@H](C)CC[C@]12C [(+)-avarol, (+)-Avarol] |  | 90% | 25 µM |  | > 40 µM |  | 90% | 100%
